Results reported in paper PMC11762167, “G Protein-Coupled Receptor 17 Inhibits Glucagon-like Peptide-1 Secretion via a Gi/o-Dependent Mechanism in Enteroendocrine Cells” (Biomolecules, 2024).

Columns and labels:
Format in all cases: cell-based
hGPR17L-V96M = molecular target: T1, hGPR17L-V96M (Homo sapiens, UniProt Q13304, V96M); assay: Endpoint cAMP in GLUTag cells expressing hGPR17L-V96M
T1 construct: host or cells: GLUTag cells, adenoviral transduction
Method: GLUTag cells were maintained in Dulbecco’s Modified Eagle Medium (DMEM) supplemented with 10% fetal bovine serum and 1% penicillin–streptomycin in a humidified incubator at 37 °C and 5% CO2. For adenovirus transduction, GLUTag cells were seeded into poly-D-lysine coated 96-well plates or 4-chamber slides. The next day, cells were transduced with adenoviruses (100–1250 viral particles per cell at time of seeding) as indicated. After 24–30 h, adenovirus-containing media was changed to serum-free growth media for overnight serum starvation. The following day, GLUTag cells were used for cAMP or calcium signaling assays, GLP-1 secretion assays, or immunostaining and imaging.
Endpoint cAMP measurements were conducted as follows. GLUTag cells were seeded into poly-D-lysine-coated 96-well plates and transduced with adenovirus as specified above and then tested for cAMP signaling. Medium was removed and cells were washed with cAMP stimulation buffer (Hanks’ balanced salt solution (HBSS), 20 mM HEPES, pH 7.4) and then incubated in cAMP stimulation buffer for 30 min at 37 °C and 5% CO2. Cells were then treated for 30 min with agonist and forskolin in the presence of 500 µM IBMX at 37 °C and 5% CO2. Stimulation buffer was then decanted, and cAMP lysis buffer (50 mM HEPES, 10 mM CaCl2, 0.35% Triton X-100, and 500 µM IBMX) was added and shaken at 700 rpm for 1 h. Lysate was transferred to a 384-well plate, and the cAMP levels were quantified using the Cisbio HTRF cAMP (Gi kit; Revvity, Waltham, MA, USA) according to the manufacturer’s protocol.

HEK293 cells = assay: GloSensor cAMP in HEK293 cells transfected with empty vector (EV); settings: 100 μM MDL29,951, 3 µM forskolin
Method: (§1) HEK293 cells were maintained and transfected as previously described.
(§2) Live-cell, real-time cAMP measurements were performed using Promega (Madison, WI, USA) GloSensor cAMP luminescent biosensor technology. Glosensor cAMP experiments were conducted as previously described in GLUTag cells and HEK293 cells.

mGPR17 = mGPR17 (Mus musculus, UniProt Q6NS65); assay: Calcium mobilization in HEK293 cells transfected with mGPR17
Method: as §1
Calcium flux in HEK293 cells was measured as previously described.

hGPR17L = hGPR17L (Homo sapiens, UniProt Q13304); assay: Live-cell GloSensor cAMP in GLUTag cells transfected with hGPR17L; set-up: host or cells: GLUTag cells (murine enteroendocrine line), adenoviral transduction; settings: MDL29,951 alone or together with forskolin
Method: as §2

[1] = HEK293 mGPR17 versus hGPR17L and hGPR17S

T1 sequence (Q13304 whole entry V96M): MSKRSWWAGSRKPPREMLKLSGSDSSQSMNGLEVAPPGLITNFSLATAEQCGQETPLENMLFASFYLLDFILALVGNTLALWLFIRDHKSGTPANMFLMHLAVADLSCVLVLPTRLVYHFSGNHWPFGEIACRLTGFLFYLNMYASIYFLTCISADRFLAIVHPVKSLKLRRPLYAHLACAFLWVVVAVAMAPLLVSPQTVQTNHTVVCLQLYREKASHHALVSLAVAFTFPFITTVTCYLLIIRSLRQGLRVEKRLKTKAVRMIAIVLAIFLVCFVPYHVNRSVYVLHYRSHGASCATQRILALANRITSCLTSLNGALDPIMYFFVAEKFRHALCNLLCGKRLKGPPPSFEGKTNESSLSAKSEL
Chain of mGPR17 (Q6NS65 whole entry): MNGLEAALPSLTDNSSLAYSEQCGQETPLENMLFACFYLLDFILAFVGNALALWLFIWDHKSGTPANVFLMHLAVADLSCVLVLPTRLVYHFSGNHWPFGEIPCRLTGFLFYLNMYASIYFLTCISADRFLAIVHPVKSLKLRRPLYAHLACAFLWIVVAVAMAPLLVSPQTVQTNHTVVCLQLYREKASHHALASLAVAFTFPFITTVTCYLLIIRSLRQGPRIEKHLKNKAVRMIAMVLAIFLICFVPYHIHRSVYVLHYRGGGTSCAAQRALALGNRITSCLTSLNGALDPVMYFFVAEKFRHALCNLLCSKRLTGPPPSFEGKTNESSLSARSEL
Chain of hGPR17L (Q13304 whole entry): as the sequence (Q13304 whole entry V96M) above, with M96V counted along it

## O=C(O)CCc1c(C(=O)O)[nH]c2cc(Cl)cc(Cl)c12 [MDL29,951]
hGPR17L-V96M; 10 µM forskolin, GLUTag hGPR17L-V96M
  effect on forskolin-stimulated cAMP: no significant effect
hGPR17L-V96M; hGPR17L-V96M (200), log [MDL29,951] (M) -4.0 vs. Vehicle, Forskolin stimulation, Figure 4B
  Mean Diff. (Tukey's multiple comparisons test), cAMP, Row 10 vs. Row 11: -6.053
hGPR17L-V96M; hGPR17L-V96M (200), log [MDL29,951] (M) -4.6 vs. Vehicle, Forskolin stimulation, Figure 4B
  Mean Diff. (Tukey's multiple comparisons test), cAMP, Row 9 vs. Row 11: -5.593
hGPR17L-V96M; hGPR17L-V96M (200), log [MDL29,951] (M) -5.2 vs. Vehicle, Forskolin stimulation, Figure 4B
  Mean Diff. (Tukey's multiple comparisons test), cAMP, Row 8 vs. Row 11: -7.097
hGPR17L-V96M; hGPR17L-V96M (200), log [MDL29,951] (M) -5.8 vs. Vehicle, Forskolin stimulation, Figure 4B
  Mean Diff. (Tukey's multiple comparisons test), cAMP, Row 7 vs. Row 11: -12.44
hGPR17L-V96M; hGPR17L-V96M (200), log [MDL29,951] (M) -6.4 vs. Vehicle, Forskolin stimulation, Figure 4B
  Mean Diff. (Tukey's multiple comparisons test), cAMP, Row 6 vs. Row 11: -8.68
hGPR17L-V96M; hGPR17L-V96M (200), log [MDL29,951] (M) -7.0 vs. Vehicle, Forskolin stimulation, Figure 4B
  Mean Diff. (Tukey's multiple comparisons test), cAMP, Row 5 vs. Row 11: -6.907
hGPR17L-V96M; hGPR17L-V96M (200), log [MDL29,951] (M) -7.6 vs. Vehicle, Forskolin stimulation, Figure 4B
  Mean Diff. (Tukey's multiple comparisons test), cAMP, Row 4 vs. Row 11: -4.737
hGPR17L-V96M; hGPR17L-V96M (200), log [MDL29,951] (M) -8.2 vs. Vehicle, Forskolin stimulation, Figure 4B
  Mean Diff. (Tukey's multiple comparisons test), cAMP, Row 3 vs. Row 11: -3.133
hGPR17L-V96M; hGPR17L-V96M (200), log [MDL29,951] (M) -8.8 vs. Vehicle, Forskolin stimulation, Figure 4B
  Mean Diff. (Tukey's multiple comparisons test), cAMP, Row 2 vs. Row 11: 3.127
hGPR17L-V96M; hGPR17L-V96M (200), log [MDL29,951] (M) -9.4 vs. Vehicle, Forskolin stimulation, Figure 4B
  Mean Diff. (Tukey's multiple comparisons test), cAMP, Row 1 vs. Row 11: -1.35
HEK293 cells
  cAMP Effect of 100 μM MDL (% Inhibition): 7.5±3.2%
mGPR17; HEK293 mGPR17
  Calcium Emax (Mean Peak ΔF/F): 0.70±0.09
  Calcium Potency (pEC50): 6.31±0.05
mGPR17; HEK293 mGPR17, read-out: Calcium Potency EC50
  EC50: 490 nM
mGPR17; [1]
  calcium response potency, fold less potent than human GPR17 isoforms: approximately 10 fold
  reduction in calcium efficacy as compared to human GPR17 isoforms: > 60%
hGPR17L
  pattern of cAMP modulation, live-cell bioluminescent cAMP biosensor: biphasic pattern
